From ChEMBL document CHEMBL3600310 (J Med Chem, 2015)
pIC50: −log10 of the molar value.

Assays:
Assay type in all cases: functional, cell-based
A549 = test: Cytotoxicity against human A549 cells after 72 hrs by MTT assay; details: A549, 72 h
MDA-MB-435 = test: Cytotoxicity against human MDA-MB-435 cells after 72 hrs by MTT assay; details: MDA-MB-435, 72 h
HCT-116 = test: Cytotoxicity against human HCT116 cells after 72 hrs by MTT assay; details: HCT-116, 72 h

SMILES | pIC50 (A549) | pIC50 (MDA-MB-435) | pIC50 (HCT-116)
COc1ccc2[nH]c3c(c2c1)CCN1C(=O)c2ccccc2[C@H]31 | 3.71 | < 3.70 | 4.51
COc1ccc2c(c1)OC1c3[nH]c4ccc(OC)cc4c3CCN1C2=O (stereo unspecified) | < 3.70 | < 3.70 | < 3.70
O=C1c2ccc(C(F)(F)F)cc2OC2c3[nH]c4ccc(O)cc4c3CCN12 (stereo unspecified) | 4.83 | 4.98 | 4.96
COc1ccc2[nH]c3c(c2c1)CCN1C(=O)c2cccc(OC)c2OC31 (stereo unspecified) | < 3.70 | 4.10 | 4.28
CCc1c2c(nc3ccc(OC(=O)N4CCC(N5CCCCC5)CC4)cc13)-c1cc3c(c(=O)n1C2)COC(=O)[C@]3(O)CC [IRINOTECAN] | 4.70 | 5.20 | 4.73
CCCNc1ccc2c(c1)C(=O)N1CCc3c([nH]c4ccccc34)C1O2 (stereo unspecified) | 3.76 | < 3.70 | 4.78
S=C1c2ccccc2OC2c3[nH]c4ccccc4c3CCN12 (stereo unspecified) | 5.11 | 5.32 | 5.25
COc1ccc2[nH]c3c(c2c1)CCN1C(=O)c2ccc(F)cc2OC31 (stereo unspecified) | < 3.70 | 3.80 | 4.43
COc1ccc2[nH]c3c(c2c1)CCN1C(=O)c2c(ccc4ccccc24)OC31 (stereo unspecified) | < 3.70 | 4.51 | < 3.70
COc1ccc2[nH]c3c(c2c1)CCCN1C(=O)c2ccccc2N(C)C31 (stereo unspecified) | < 3.70 | < 3.70 | < 3.70
COc1ccc2[nH]c3c(c2c1)CCN1C(=O)c2sccc2N(C)C31 (stereo unspecified) | < 3.70 | < 3.70 | < 3.70
CN1c2ccccc2C(=O)N2CCc3c([nH]c4ccccc34)[C@@H]21 [EVODIAMINE] | < 3.70 | 4.66 | < 3.70
COc1ccc2[nH]c3c(c2c1)CCN1C(=O)c2ccsc2N(C)C31 (stereo unspecified) | 4.57 | 4.44 | 4.85
COc1ccc2[nH]c3c(c2c1)CCN1C(=O)c2cscc2N(C)C31 (stereo unspecified) | 4.49 | 4.31 | 4.02
O=C1c2cc(Cl)cc(Cl)c2OC2c3[nH]c4ccc(O)cc4c3CCN12 (stereo unspecified) | 5.07 | 6.52 | 5.15
COc1ccc2[nH]c3c(c2c1)CCN1C(=O)c2ccc(Cl)cc2OC31 (stereo unspecified) | 5.42 | 5.34 | 5.06
COc1ccc2[nH]c3c(c2c1)CCN1C(=O)c2ccc4ccccc4c2OC31 (stereo unspecified) | < 3.70 | < 3.70 | < 3.70
O=C1c2ccc(C(F)(F)F)cc2OC2c3[nH]c4ccccc4c3CCN12 (stereo unspecified) | 4.59 | 4.66 | 4.63
COc1ccc2[nH]c3c(c2c1)CCN1C(=O)c2cc(N)ccc2OC31 (stereo unspecified) | 3.94 | 3.88 | 4.37
COc1ccc2[nH]c3c(c2c1)CCN1C(=O)c2cc([N+](=O)[O-])ccc2OC31 (stereo unspecified) | < 3.70 | < 3.70 | < 3.70
O=C1c2cc3ccccc3cc2OC2c3[nH]c4ccc(O)cc4c3CCN12 (stereo unspecified) | 5.25 | 5.29 | 5.29
Nc1ccc2c(c1)C(=O)N1CCc3c([nH]c4ccccc34)C1O2 (stereo unspecified) | 5.57 | 5.04 | 5.64
COc1ccc2[nH]c3c(c2c1)CCN1C(=O)c2cc(Cl)ccc2OC31 (stereo unspecified) | 7.30 | 5.62 | 6.00
CCCN(CCC)c1ccc2c(c1)C(=O)N1CCc3c([nH]c4ccccc34)C1O2 (stereo unspecified) | < 3.70 | < 3.70 | 5.64
Cc1cccc2c1C(=O)N1CCc3c([nH]c4ccc(O)cc34)C1O2 (stereo unspecified) | 5.74 | > 8.52 | > 8.52
O=C1c2cc(Br)ccc2OC2c3[nH]c4ccccc4c3CCN12 (stereo unspecified) | 5.80 | 5.43 | 4.86

SMILES | pIC50 (A549) | pIC50 (MDA-MB-435) | pIC50 (HCT-116)
CN1c2ccn(C)c2C(=O)N2CCc3c([nH]c4ccccc34)C21 (stereo unspecified) | < 3.70 | 3.68 | 4.12
Cc1ccc2c(c1)OC1c3[nH]c4ccccc4c3CCN1C2=O (stereo unspecified) | 4.20 | 4.01 | 4.59
COc1ccc2[nH]c3c(c2c1)CCN1C(=O)c2c(ccn2C)N(C)C31 (stereo unspecified) | 4.55 | 4.38 | 4.27
O=C1c2cc(F)ccc2OC2c3[nH]c4ccccc4c3CCN12 (stereo unspecified) | 5.18 | 4.34 | 5.24
COc1ccc2[nH]c3c(c2c1)CCN1C(=O)c2cc4ccccc4cc2OC31 (stereo unspecified) | < 3.70 | 4.46 | 4.24
O=C1c2cccc(O)c2OC2c3[nH]c4ccccc4c3CCN12 (stereo unspecified) | 3.99 | 4.37 | < 3.70
Cc1cccc2c1C(=S)N1CCc3c([nH]c4ccccc34)C1O2 (stereo unspecified) | 4.96 | 5.35 | 5.42
CN1c2ccccc2C(=O)N2CCCc3c(oc4ccc(O)cc34)C21 (stereo unspecified) | < 3.70 | < 3.70 | < 3.70
O=C1c2cc(Cl)ccc2OC2c3[nH]c4ccccc4c3CCN12 (stereo unspecified) | 7.30 | 6.22 | 5.85
COc1ccc2[nH]c3c(c2c1)CCN1C(=O)c2ccc(C(F)(F)F)cc2OC31 (stereo unspecified) | 4.30 | 4.58 | 4.50
O=C1c2ccc(Cl)cc2OC2c3[nH]c4ccccc4c3CCN12 (stereo unspecified) | 4.23 | 4.47 | 4.39
O=C1c2ccc(F)cc2OC2c3[nH]c4ccccc4c3CCN12 (stereo unspecified) | 4.02 | 3.77 | 5.17
COc1ccc2c(c1)OC1c3[nH]c4ccccc4c3CCN1C2=O (stereo unspecified) | 3.76 | 4.28 | 4.15
O=C1c2ccccc2OC2c3[nH]c4ccc(Cl)cc4c3CCN12 (stereo unspecified) | 5.46 | 5.25 | 5.68
O=C1c2ccccc2OC2c3[nH]c4ccccc4c3CCN12 (stereo unspecified) | 5.62 | 5.52 | 5.51
COc1ccc2[nH]c3c(c2c1)CCN1C(=O)c2cc(F)ccc2OC31 (stereo unspecified) | 4.88 | 4.44 | 4.60
CN1c2ccsc2C(=O)N2CCc3c([nH]c4ccc(O)cc34)C21 (stereo unspecified) | 4.80 | < 3.70 | 4.63
CN1c2ccsc2C(=O)N2CCc3c([nH]c4ccccc34)C21 (stereo unspecified) | 3.96 | < 3.70 | 3.72
CC(C)CNc1ccc2c(c1)C(=O)N1CCc3c([nH]c4ccccc34)C1O2 (stereo unspecified) | < 3.70 | < 3.70 | 5.28
CN1c2ccccc2C(=O)N2CCCc3c([nH]c4ccc(O)cc34)C21 (stereo unspecified) | 4.49 | 4.16 | 4.22
O=C1c2ccc(O)cc2OC2c3[nH]c4ccccc4c3CCN12 (stereo unspecified) | 4.76 | 4.53 | 4.27
COc1ccc2[nH]c3c(c2c1)CCN1C(=O)c2ccccc2OC31 (stereo unspecified) | < 3.70 | < 3.70 | < 3.70
O=C1c2cc([N+](=O)[O-])ccc2OC2c3[nH]c4ccccc4c3CCN12 (stereo unspecified) | < 3.70 | < 3.70 | < 3.70
CC(C)C(=O)Nc1ccc2c(c1)C(=O)N1CCc3c([nH]c4ccccc34)C1O2 (stereo unspecified) | 4.55 | 4.93 | 5.03
O=C1c2cc(O)ccc2OC2c3[nH]c4ccccc4c3CCN12 (stereo unspecified) | 4.79 | 4.94 | 5.72
COc1ccc2c(c1)C(=O)N1CCc3c([nH]c4ccc(OC)cc34)C1O2 (stereo unspecified) | 5.02 | 5.00 | 4.63
